From patent US8323656B2, “Antigen determinant of rheumatoid arthritis-specific autoantibody and use thereof” (priority 2007, dated 2012)

How the values were obtained:
[1] = system: RA-specific antibodies (4 anti-CCP2-positive sera); test: Indirect (inhibition) ELISA: cross-reactivity of analytes with RA-specific antibodies, immobilized CCP2 as capture antigen; type: binding, human; conditions: unpublished epitope mapping studies; result in words
[2] = system: RA-specific antibodies (4 anti-CCP2-positive sera); test: as above; type: binding, human; design: Cross-reactivity of antibodies with the named analyte: concentration or dose not given beside the values
From the text: A complete set of 21 amino acids and their derivatives were used as analytes to determine if any analyte inhibited the action of the detector antibody in binding to the capture antigen. Determination was made by observation at the single AA level through a series of moving windows of different derivatization. Following this procedure ensures that no antigenic elements of the epitope are missed as long as the possible AA derivatives are available. The analysis began in the fluid phase, wherein initially, the detector antibody was incubated with each of the analytes. After overnight incubation at 4° C., 100 μl of analyte preadsorbed detector antibody per well were added into 96-well microplate which immobilized CCP2 on the surface, and was incubated for 1 hour at room temperature with shaking. […] The reaction was stopped by adding 100 μl of 0.5 M H2SO4 per well and the results were estimated at A450 nm.
The concept of indirect ELISA was based upon an inhibition test between an unknown amount of analyte and a known amount of immobilized antigen for a limited number of detector antibody binding-sites. If the contents of detector antibody and immobilized antigen are kept constant, the distribution of detector antibody between immobilized antigen bound detector antibody and analyte bound detector antibody is dependent upon the amount of sample analyte. The mass of immobilized antigen bound detector antibody is inversely proportional to the amount of analyte bound detector antibody.
(§1) As described in FIG. 1, Amino Acid Profiles for the Antigenic Determinant, ELISA was carried out with sera from Euro-diagnostica (serum 1) and from three patients (serum 2, 3, and 4) with RA to CCP2 positive at various concentrations of different amino acids. […] The horizontal line at 100% represents the control percent binding of the CCP2 to the antibody.
as §1, with “2, Acetylamino” for “1, Amino”, “acetylamino” for “amino”
as §1, with “3, Alkylamino” for “1, Amino”, “alkylamino” for “amino”
as §1, with “4, Acetylamino” for “1, Amino”, “Acid Methyl Ester” for “Acid”, “acetylamino acid methyl esters.” for “amino acids.”

NC(=O)NCCC[C@H](N)C(=O)O [Citrulline]
Binding of RA-specific antibodies [1]: does not bind | Inhibition of antibody binding to the immobilized CCP2 ([2]; FIG. 1 and 2, analyte at 50 mM, 4 sera, result in words): limited capability to inhibit | Cross-reactivity (%) of RA-specific antibody, modified α-amino acid: alkylation + acetylation ([2]; acetylated amino acid methyl ester of the amino acid named, 0 = less than 1%): 100% | Cross-reactivity (%) of RA-specific antibody, modified α-amino acid: acetylation ([2]; acetylated derivative of the amino acid named, 0 = less than 1%): 74% | Cross-reactivity (%) of RA-specific antibody, modified α-amino acid: alkylation ([2]; butyl esterified (Be) derivative): ^Be124% | Cross-reactivity (%) of RA-specific antibody, modified α-amino acid: alkylation ([2]; ethyl esterified (Ee) derivative): ^Ee72% | Cross-reactivity (%) of RA-specific antibody, modified α-amino acid: alkylation ([2]; methyl esterified (Me) derivative of the amino acid named, 0 = less than 1%): ^Me81% | Cross-reactivity (%) of RA-specific antibody, modified α-amino acid: alkylation ([2]; propyl esterified (Pe) derivative): ^Pe115% | Cross-reactivity of antibodies with the named analyte ([2]; the analyte itself is named): zero | Cross-reactivity (%) of RA-specific antibody, α-amino acid ([2]; unmodified α-amino acid, 0 = cross-reactivity less than 1%): 0%
